Experimental data reported in patent publication US20240210412A1, “SULFONYL-TRIAZOLE COMPOUNDS USEFUL AS LIGANDS AND INHIBITORS OF PROSTAGLANDIN REDUCTASE 2” (University of Virginia Patent Foundation, priority 2021, published 2024).

Key:
Test in all cases: SILAC LC-MS ABPP
Format in all cases: cell-based
Conditions in all cases: 25 μM 2 h, live DM93 cells
P06396 = biological target: T1, P06396 (Homo sapiens, UniProt P06396)
T1 construct: endogenous in cells; host or cells: DM93 cells (SILAC)
Summary of the method: (§1)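 DM93 melanoma cells under SILAC: light treated with DMSO, heavy with SuTEx ligand (25 μM, 2 h, 37 °C) in serum-free medium, then HHS-475 alkyne probe (100 μM, 2 h, 37 °C). Soluble proteomes clicked to desthiobiotin-PEG3-azide by CuAAC, mixed 1:1, trypsinised, avidin-enriched; probe-modified tyrosine peptides quantified by LC-MS/MS.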

P49721 = biological target: T2, P49721 (Homo sapiens, UniProt P49721)
T2 construct: endogenous in cells; host or cells: DM93 cells (SILAC)
Summary of the method: as §1

Q14694 = biological target: T3, Q14694 (Homo sapiens, UniProt Q14694)
T3 construct: performing SuTEx compound screening directly in cells; endogenous in cells; host or cells: DM93 cells (SILAC), soluble fraction
Summary of the method: as §1

P31948 = biological target: T4, P31948 (Homo sapiens, UniProt P31948)
T4 construct: endogenous in cells; host or cells: DM93 (SILAC)
T4 sequence (P31948 whole entry): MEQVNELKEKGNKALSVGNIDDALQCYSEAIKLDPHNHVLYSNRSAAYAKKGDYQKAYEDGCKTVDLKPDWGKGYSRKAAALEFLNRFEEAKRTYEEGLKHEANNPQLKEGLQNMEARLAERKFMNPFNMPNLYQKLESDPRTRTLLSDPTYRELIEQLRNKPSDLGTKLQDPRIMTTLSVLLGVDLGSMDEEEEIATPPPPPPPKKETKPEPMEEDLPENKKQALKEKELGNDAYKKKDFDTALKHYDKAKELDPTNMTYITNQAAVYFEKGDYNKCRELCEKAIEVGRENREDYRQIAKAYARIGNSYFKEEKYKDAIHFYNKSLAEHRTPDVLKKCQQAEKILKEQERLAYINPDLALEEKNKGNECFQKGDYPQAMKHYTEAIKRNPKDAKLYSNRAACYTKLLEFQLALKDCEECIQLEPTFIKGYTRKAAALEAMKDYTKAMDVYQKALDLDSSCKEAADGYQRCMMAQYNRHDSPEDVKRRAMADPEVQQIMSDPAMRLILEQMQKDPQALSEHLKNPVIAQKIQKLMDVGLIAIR
Summary of the method: as §1

P25685 = biological target: T5, P25685 (Homo sapiens, UniProt P25685)
T5 construct: endogenous in cells; host or cells: DM93 (SILAC)
T5 sequence (P25685 whole entry): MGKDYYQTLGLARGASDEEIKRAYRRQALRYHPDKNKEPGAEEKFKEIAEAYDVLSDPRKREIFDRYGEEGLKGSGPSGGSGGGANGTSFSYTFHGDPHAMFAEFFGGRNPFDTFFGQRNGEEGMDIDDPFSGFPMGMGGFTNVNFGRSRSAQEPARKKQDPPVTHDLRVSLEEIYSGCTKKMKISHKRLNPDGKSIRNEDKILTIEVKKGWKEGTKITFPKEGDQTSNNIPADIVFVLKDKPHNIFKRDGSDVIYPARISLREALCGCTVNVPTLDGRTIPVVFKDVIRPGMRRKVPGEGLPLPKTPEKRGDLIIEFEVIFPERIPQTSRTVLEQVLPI
Summary of the method: as §1

Q9H3P7 = biological target: T6, Q9H3P7 (Homo sapiens, UniProt Q9H3P7)
T6 construct: endogenous in cells; host or cells: DM93 cells (SILAC), treated live; soluble proteome analysed
Summary of the method: as §1

Q9NVE7 = biological target: T7, Q9NVE7 (Homo sapiens, UniProt Q9NVE7)
T7 construct: endogenous in cells; host or cells: DM93 cells (SILAC)
Summary of the method: as §1

P62263 = biological target: T8, P62263 (Homo sapiens, UniProt P62263)
T8 construct: performing SuTEx compound screening directly in cells; endogenous in cells; host or cells: DM93 cells (SILAC)
Summary of the method: as §1

Q92878 = biological target: T9, Q92878 (Homo sapiens, UniProt Q92878)
T9 construct: endogenous in cells; host or cells: DM93 cells (SILAC), live-cell treatment
T9 sequence (Q92878 whole entry): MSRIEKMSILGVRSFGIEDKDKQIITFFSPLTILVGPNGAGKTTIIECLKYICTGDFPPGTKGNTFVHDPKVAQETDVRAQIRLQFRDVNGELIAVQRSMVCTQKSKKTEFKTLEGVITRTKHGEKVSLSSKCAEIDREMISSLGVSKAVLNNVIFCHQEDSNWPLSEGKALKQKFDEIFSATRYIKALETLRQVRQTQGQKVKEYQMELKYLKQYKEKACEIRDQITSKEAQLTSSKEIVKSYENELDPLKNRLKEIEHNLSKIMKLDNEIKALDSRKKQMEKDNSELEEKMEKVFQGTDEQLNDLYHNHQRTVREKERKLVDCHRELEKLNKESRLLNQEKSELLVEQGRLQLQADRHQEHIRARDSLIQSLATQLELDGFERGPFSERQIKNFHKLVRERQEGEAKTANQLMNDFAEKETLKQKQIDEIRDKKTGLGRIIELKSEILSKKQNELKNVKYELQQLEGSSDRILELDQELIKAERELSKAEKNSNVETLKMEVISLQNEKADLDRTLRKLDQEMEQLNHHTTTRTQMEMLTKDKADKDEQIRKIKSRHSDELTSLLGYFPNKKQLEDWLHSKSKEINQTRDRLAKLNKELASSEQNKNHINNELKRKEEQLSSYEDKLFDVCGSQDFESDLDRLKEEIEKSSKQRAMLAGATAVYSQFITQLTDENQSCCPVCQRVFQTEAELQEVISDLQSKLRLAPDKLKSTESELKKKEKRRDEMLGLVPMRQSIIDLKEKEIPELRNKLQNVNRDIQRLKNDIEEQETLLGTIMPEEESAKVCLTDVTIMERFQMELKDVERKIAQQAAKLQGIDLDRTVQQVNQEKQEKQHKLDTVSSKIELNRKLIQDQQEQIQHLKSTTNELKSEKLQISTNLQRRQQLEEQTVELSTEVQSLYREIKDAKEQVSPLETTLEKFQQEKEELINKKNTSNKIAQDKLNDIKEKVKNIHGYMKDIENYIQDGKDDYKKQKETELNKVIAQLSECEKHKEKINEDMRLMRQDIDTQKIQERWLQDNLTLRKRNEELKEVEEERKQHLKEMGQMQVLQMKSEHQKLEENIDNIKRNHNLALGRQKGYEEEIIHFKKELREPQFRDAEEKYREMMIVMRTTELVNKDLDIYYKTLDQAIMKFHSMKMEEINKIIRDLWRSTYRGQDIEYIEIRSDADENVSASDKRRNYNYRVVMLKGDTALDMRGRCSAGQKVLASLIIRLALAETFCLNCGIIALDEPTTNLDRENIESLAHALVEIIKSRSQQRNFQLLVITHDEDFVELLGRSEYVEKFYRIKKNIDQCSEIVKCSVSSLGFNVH
Summary of the method: as §1

Q15654 = biological target: T10, Q15654 (Homo sapiens, UniProt Q15654)
T10 construct: performing SuTEx compound screening directly in cells; endogenous in cells; host or cells: DM93 cells (SILAC), soluble fraction
T10 sequence (Q15654 whole entry): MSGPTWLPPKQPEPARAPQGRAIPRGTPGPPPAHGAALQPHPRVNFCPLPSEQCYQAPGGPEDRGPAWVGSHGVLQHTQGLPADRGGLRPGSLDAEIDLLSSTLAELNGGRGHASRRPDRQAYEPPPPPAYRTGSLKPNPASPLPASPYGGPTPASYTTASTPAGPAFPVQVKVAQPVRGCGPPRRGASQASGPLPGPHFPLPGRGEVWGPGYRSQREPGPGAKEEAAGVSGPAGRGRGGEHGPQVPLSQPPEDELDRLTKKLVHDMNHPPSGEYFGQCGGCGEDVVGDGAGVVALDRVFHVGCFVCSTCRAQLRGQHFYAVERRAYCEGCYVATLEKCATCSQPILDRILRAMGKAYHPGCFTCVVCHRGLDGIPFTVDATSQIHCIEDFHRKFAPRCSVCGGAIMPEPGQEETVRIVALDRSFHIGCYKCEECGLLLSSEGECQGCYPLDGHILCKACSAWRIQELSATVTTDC
Summary of the method: as §1

Q9NUJ1 = biological target: T11, Q9NUJ1 (Homo sapiens, UniProt Q9NUJ1)
T11 construct: endogenous in cells; host or cells: DM93 cells (SILAC), treated live; soluble proteome analysed
Summary of the method: as §1

Q16836 = biological target: T12, Q16836 (Homo sapiens, UniProt Q16836)
T12 construct: performing SuTEx compound screening directly in cells; endogenous in cells; host or cells: DM93 cells (SILAC), soluble fraction
Summary of the method: as §1

P18206 = biological target: T13, P18206 (Homo sapiens, UniProt P18206)
T13 construct: Probe-modified proteins from the soluble fraction were conjugated to a desthiobiotin-azide tag; endogenous in cells; host or cells: DM93 (SILAC)
Summary of the method: as §1

Q5T6F2 = biological target: T14, Q5T6F2 (Homo sapiens, UniProt Q5T6F2)
T14 construct: performing SuTEx compound screening directly in cells; endogenous in cells; host or cells: DM93 cells (SILAC), soluble fraction
T14 sequence (Q5T6F2 whole entry): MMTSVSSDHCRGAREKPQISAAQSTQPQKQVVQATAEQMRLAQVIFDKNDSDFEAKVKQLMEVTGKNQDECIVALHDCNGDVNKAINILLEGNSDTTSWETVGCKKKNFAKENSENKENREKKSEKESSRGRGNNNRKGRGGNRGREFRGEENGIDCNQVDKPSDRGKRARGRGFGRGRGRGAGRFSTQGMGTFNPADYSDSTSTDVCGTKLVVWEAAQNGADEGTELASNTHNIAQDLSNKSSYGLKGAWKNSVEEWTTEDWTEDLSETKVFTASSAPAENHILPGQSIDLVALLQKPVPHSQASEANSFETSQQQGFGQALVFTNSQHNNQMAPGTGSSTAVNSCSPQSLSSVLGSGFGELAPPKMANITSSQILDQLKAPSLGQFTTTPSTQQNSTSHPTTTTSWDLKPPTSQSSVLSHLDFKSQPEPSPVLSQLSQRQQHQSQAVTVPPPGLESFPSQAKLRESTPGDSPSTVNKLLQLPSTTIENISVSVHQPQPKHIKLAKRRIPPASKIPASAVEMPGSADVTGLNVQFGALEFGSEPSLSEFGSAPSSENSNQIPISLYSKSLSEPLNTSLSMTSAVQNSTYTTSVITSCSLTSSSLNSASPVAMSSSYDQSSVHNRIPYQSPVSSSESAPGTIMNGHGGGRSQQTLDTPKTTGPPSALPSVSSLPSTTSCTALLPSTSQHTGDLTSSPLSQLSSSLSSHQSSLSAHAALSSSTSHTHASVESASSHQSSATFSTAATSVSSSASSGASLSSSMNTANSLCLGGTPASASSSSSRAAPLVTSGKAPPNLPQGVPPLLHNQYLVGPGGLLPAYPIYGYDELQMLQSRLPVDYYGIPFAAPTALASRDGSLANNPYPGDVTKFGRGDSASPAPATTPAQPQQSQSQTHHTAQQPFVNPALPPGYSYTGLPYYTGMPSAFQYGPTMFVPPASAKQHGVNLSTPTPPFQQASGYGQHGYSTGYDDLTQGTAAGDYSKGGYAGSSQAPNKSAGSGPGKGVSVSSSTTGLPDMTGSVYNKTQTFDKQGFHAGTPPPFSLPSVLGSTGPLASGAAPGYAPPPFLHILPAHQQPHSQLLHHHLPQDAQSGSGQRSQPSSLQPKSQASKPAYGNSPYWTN
Summary of the method: as §1

Q7Z6M1 = biological target: T15, Q7Z6M1 (Homo sapiens, UniProt Q7Z6M1)
T15 construct: endogenous in cells; host or cells: DM93 cells (SILAC), live-cell treatment
Summary of the method: as §1

Q13033 = biological target: T16, Q13033 (Homo sapiens, UniProt Q13033)
T16 construct: performing SuTEx compound screening directly in cells; endogenous in cells; host or cells: DM93 cells (SILAC), soluble fraction
Summary of the method: as §1

O00232 = biological target: T17, O00232 (Homo sapiens, UniProt O00232)
T17 construct: endogenous in cells; host or cells: DM93
T17 sequence (O00232 whole entry): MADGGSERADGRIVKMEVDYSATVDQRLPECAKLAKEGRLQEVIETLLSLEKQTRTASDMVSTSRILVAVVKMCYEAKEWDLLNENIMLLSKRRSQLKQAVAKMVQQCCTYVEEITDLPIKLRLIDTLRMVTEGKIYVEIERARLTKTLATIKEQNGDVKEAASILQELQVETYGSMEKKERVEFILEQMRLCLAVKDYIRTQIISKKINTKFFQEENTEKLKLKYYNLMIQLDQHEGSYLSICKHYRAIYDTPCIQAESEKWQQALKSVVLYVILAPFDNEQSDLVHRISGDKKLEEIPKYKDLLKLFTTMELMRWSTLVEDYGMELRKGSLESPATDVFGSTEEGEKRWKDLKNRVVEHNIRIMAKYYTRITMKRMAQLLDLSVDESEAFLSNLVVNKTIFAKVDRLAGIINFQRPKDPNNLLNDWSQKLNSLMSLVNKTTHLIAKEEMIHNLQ
Summary of the method: as §1

P63241 = biological target: T18, P63241 (Homo sapiens, UniProt P63241)
T18 construct: performing SuTEx compound screening directly in cells; endogenous in cells; host or cells: DM93 cells (SILAC)
Summary of the method: as §1

T1 sequence (P06396 52-782 limits assumed): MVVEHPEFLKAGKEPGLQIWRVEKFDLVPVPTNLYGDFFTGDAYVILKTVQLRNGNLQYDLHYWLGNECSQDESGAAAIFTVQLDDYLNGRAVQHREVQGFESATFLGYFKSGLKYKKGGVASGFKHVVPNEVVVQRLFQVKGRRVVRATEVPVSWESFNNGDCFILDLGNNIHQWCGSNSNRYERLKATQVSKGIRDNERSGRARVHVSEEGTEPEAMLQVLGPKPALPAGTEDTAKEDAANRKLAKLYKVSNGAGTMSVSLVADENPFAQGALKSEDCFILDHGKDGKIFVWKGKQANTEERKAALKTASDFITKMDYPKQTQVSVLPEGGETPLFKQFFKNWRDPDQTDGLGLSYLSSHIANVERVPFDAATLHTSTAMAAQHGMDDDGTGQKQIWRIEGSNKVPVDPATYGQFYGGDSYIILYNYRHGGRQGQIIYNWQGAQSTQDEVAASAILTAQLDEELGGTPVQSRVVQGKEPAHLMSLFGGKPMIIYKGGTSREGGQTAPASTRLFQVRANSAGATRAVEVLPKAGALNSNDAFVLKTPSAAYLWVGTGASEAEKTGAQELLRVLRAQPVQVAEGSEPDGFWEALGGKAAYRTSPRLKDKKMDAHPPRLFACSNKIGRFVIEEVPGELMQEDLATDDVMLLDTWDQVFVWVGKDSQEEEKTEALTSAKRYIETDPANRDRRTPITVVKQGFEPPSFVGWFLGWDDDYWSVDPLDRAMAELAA

O=C(c1ccc(S(=O)(=O)n2cncn2)cc1)N1CCC(c2ccccc2)CC1 [HHS-0701, (4-((1H-1,2,4-triazol-1-yl)sulfonyl)phenyl)(4-phenylpiperidin-1-yl)methanone]
liganded tyrosine site 469 (P06396): HHS0701.Y (tyrosine sites that showed >80% reductions (SR >5) in probe labeling in cells treated with compounds (liganded sites)) | liganded tyrosine site 134 (P49721): HHS0701.Y (tyrosine sites that showed >80% reductions (SR >5) in probe labeling in cells treated with compounds (liganded sites))

O=C(NC1CCCCC1)c1ccc(S(=O)(=O)n2cncn2)cc1 [HHS-0301, 4-((1H-1,2,4-triazol-1-yl)sulfonyl)-N-cyclohexylbenzamide]
liganded tyrosine site 359 (Q14694): HHS0301.Y (tyrosine sites that showed >80% reductions (SR >5) in probe labeling in cells treated with compounds (liganded sites)) | liganded tyrosine site 134 (P31948): HHS0301.Y (tyrosine sites that showed >80% reductions (SR >5) in probe labeling in cells treated with compounds (liganded sites)) | liganded tyrosine site 52 (P25685): HHS0301.Y (tyrosine sites that showed >80% reductions (SR >5) in probe labeling in cells treated with compounds (liganded sites))

O=C(NCC1CC1)c1ccc(S(=O)(=O)n2cncn2)cc1 [HHS-0201, 4-((1H-1,2,4-triazol-1-yl)sulfonyl)-N-(cyclopropylmethyl)benzamide]
liganded tyrosine site 293 (Q9H3P7): HHS0201.Y|HHS0301.Y (tyrosine sites that showed >80% reductions (SR >5) in probe labeling in cells treated with compounds (liganded sites)) | liganded tyrosine site 338 (Q9NVE7): HHS0201.Y|HHS0401.Y (tyrosine sites that showed >80% reductions (SR >5) in probe labeling in cells treated with compounds (liganded sites)) | liganded tyrosine site 72 (P62263): HHS0201.Y|HHS0301.Y (tyrosine sites that showed >80% reductions (SR >5) in probe labeling in cells treated with compounds (liganded sites)) | liganded tyrosine site 244 (Q92878): HHS0201.Y|HHS0301.Y (tyrosine sites that showed >80% reductions (SR >5) in probe labeling in cells treated with compounds (liganded sites)) | liganded tyrosine site 157 (Q15654): HHS0201.Y (tyrosine sites that showed >80% reductions (SR >5) in probe labeling in cells treated with compounds (liganded sites)) | liganded tyrosine site 215 (Q9NUJ1): HHS0201.Y|HHS0701.Y (tyrosine sites that showed >80% reductions (SR >5) in probe labeling in cells treated with compounds (liganded sites)) | liganded tyrosine site 264 (Q16836): HHS0201.Y|HHS0401.Y|HHS0701.Y (tyrosine sites that showed >80% reductions (SR >5) in probe labeling in cells treated with compounds (liganded sites)) | liganded tyrosine site 100 (P18206): HHS0201.Y|HHS0301.Y (tyrosine sites that showed >80% reductions (SR >5) in probe labeling in cells treated with compounds (liganded sites))

O=C(NCc1ccccc1)c1ccc(S(=O)(=O)n2cncn2)cc1 [HHS-0401, 4-((1H-1,2,4-triazol-1-yl)sulfonyl)-N-benzylbenzamide]
liganded tyrosine site 823 (Q5T6F2): HHS0401.Y (tyrosine sites that showed >80% reductions (SR >5) in probe labeling in cells treated with compounds (liganded sites)) | liganded tyrosine site 825 (Q5T6F2): HHS0401.Y (tyrosine sites that showed >80% reductions (SR >5) in probe labeling in cells treated with compounds (liganded sites)) | liganded tyrosine site 87 (Q7Z6M1): HHS0401.Y|HHS0701.Y (tyrosine sites that showed >80% reductions (SR >5) in probe labeling in cells treated with compounds (liganded sites))

O=C(NC1CC1)c1ccc(S(=O)(=O)n2cncn2)cc1 [HHS-0101, 4-((1H-1,2,4-triazol-1-yl)sulfonyl)-N-cyclopropylbenzamide]
liganded tyrosine site 137 (Q13033): HHS0101.Y|HHS0401.Y (tyrosine sites that showed >80% reductions (SR >5) in probe labeling in cells treated with compounds (liganded sites)) | liganded tyrosine site 20 (O00232): HHS0101.Y|HHS0301.Y|HHS0401.Y|HHS0701.Y (tyrosine sites that showed >80% reductions (SR >5) in probe labeling in cells treated with compounds (liganded sites)) | liganded tyrosine site 127 (P63241): HHS0101.Y|HHS0201.Y|HHS0701.Y (tyrosine sites that showed >80% reductions (SR >5) in probe labeling in cells treated with compounds (liganded sites))
